{"source": "patent US3961041A", "about": "“Effervescent enteric coated L-dopa formulation and method of using the same” (priority 1974, dated 1976)", "key": {"[1]": {"assay": "Absorption of L-DOPA from the gastrointestinal tract (inventors' experimentation)", "format": "in vivo", "text": "As for (1), it has been confirmed that the decomposition of L-DOPA in the stomach is remarkable as shown in numerous reports in the past.\nAs a result, optimum absorption of the drug is totally incomplete."}, "[2]": {"conditions": "cited from earlier work"}, "decarboxylase enzymes": {"system": "decarboxylase enzymes", "conditions": "cited from earlier work"}, "Parkinson's Disease": {"system": "Parkinson's Disease", "conditions": "in vivo, po; cited from earlier work"}, "[3]": {"conditions": "dopamine as metabolite; cited from earlier work"}}, "data": [{"smiles": "N[C@@H](Cc1ccc(O)c(O)c1)C(=O)O", "note": "[L-DOPA, 3,4-dihydroxy-L-phenylalanine]", "values": [{"measurement": "absorption from the gastrointestinal tract", "setting": "[1]; in vivo", "result": "almost completely absorbed"}, {"measurement": "optimum absorption site", "setting": "[1]; in vivo", "result": "small intestine, especially in the upper part thereof"}, {"measurement": "absorption, oral as compared to intravenous", "setting": "[1]; oral vs intravenous", "result": "not appreciably different"}, {"measurement": "decomposition in the stomach", "setting": "[2]; in vivo", "result": "remarkable"}, {"measurement": "stability in the gastrointestinal tract, especially in the stomach", "setting": "[2]; in vivo", "result": "unstable"}, {"measurement": "absorption from the gastrointestinal tract (prior art reason)", "setting": "[2]; oral", "result": "poorly absorbed"}, {"measurement": "decarboxylation via decarboxylase enzymes in the intestine", "setting": "decarboxylase enzymes", "result": "apt to undergo decarboxylation"}, {"measurement": "side effects when massive dosing is administered", "setting": "Parkinson's Disease", "result": "marked side effects"}]}, {"smiles": "NCCc1ccc(O)c(O)c1", "note": "[dopamine]", "values": [{"measurement": "therapeutic effect in the treatment of Parkinson's Disease", "setting": "[3]", "result": "does not have any therapeutic effect"}]}]}
